Assay results published in paper PMC9954146, “Anti-Leukaemic Activity of Rilpivirine Is Mediated by Aurora A Kinase Inhibition” (Cancers, 2023).

Legend:
Experiment in all cases: Kinase panel
Assay type in all cases: biochemical
Conditions in all cases: read-out: % Residual Activity
EphB2(h) = molecular target: T1, EphB2(h) (Homo sapiens, UniProt P29323)
T1 construct: purchased Eurofins (KinaseProfiler)
Method: (§1) Kinome-wide selectivity of rilpivirine was measured using the kinase screening and profiling service of Eurofins Scientific (Le bois l’Evêque 86600. Celle-Lévescault, France) and Ki values were determined using radioisotope-based assays by Reaction Biology Corporation (Malvern, PA, USA). The experimental details of Eurofin Scientific and Reaction Biology services for relevant assays are available at https://www.eurofinsdiscoveryservices.com/services/in-Vitro-assays/kinases/kinase-profiler (accessed on 7 July 2021) and https://www.reactionbiology.com (accessed on 7 July 2021), respectively. Ki values were estimated from the corresponding IC50 values using the Cheng–Prusoff equation [21] and the Km (ATP) of individual kinase was used for IC50 determination.

ROCK-I(h) = molecular target: T2, ROCK-I(h) (Homo sapiens, UniProt Q13464)
T2 construct: purchased Eurofins (KinaseProfiler)
Method: as §1

DYRK2(h) = molecular target: T3, DYRK2(h) (Homo sapiens, UniProt Q92630)
T3 construct: purchased Eurofins (KinaseProfiler)
T3 sequence (Q92630 whole entry): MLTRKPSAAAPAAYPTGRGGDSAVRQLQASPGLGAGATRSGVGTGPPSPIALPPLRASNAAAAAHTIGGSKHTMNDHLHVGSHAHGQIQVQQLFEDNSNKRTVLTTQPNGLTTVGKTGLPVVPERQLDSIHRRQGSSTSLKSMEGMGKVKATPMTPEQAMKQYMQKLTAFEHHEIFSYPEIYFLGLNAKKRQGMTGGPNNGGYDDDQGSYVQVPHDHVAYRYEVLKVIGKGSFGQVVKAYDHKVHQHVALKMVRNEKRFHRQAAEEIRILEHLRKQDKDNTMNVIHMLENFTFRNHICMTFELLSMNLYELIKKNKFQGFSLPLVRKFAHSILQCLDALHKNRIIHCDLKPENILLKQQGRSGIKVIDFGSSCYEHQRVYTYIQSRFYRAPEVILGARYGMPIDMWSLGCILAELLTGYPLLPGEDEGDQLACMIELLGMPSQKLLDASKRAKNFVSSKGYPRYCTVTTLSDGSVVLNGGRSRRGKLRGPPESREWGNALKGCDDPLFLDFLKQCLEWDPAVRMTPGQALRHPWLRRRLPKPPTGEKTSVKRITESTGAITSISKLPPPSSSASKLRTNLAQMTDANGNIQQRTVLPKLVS
Method: as §1

Src(T341M)(h) = molecular target: T4, Src(T341M)(h) (Homo sapiens, UniProt P12931, T341M)
T4 construct: purchased Eurofins (KinaseProfiler)
Method: as §1

[1] = molecular target: PI3 Kinase (p110b/p85a)(m) (Mus musculus, UniProt Q8BTI9)
Method: as §1

ATR/ATRIP(h) = molecular target: T5, ATR/ATRIP(h) (Homo sapiens, UniProt Q13535)
T5 construct: purchased Eurofins (KinaseProfiler)
Method: as §1

CK2α2(h) = molecular target: T6, CK2α2(h) (Homo sapiens, UniProt P19784)
T6 construct: purchased Eurofins (KinaseProfiler)
Method: as §1

MSK2(h) = molecular target: T7, MSK2(h) (Homo sapiens, UniProt O75676)
T7 construct: purchased Eurofins (KinaseProfiler)
T7 sequence (O75676 whole entry): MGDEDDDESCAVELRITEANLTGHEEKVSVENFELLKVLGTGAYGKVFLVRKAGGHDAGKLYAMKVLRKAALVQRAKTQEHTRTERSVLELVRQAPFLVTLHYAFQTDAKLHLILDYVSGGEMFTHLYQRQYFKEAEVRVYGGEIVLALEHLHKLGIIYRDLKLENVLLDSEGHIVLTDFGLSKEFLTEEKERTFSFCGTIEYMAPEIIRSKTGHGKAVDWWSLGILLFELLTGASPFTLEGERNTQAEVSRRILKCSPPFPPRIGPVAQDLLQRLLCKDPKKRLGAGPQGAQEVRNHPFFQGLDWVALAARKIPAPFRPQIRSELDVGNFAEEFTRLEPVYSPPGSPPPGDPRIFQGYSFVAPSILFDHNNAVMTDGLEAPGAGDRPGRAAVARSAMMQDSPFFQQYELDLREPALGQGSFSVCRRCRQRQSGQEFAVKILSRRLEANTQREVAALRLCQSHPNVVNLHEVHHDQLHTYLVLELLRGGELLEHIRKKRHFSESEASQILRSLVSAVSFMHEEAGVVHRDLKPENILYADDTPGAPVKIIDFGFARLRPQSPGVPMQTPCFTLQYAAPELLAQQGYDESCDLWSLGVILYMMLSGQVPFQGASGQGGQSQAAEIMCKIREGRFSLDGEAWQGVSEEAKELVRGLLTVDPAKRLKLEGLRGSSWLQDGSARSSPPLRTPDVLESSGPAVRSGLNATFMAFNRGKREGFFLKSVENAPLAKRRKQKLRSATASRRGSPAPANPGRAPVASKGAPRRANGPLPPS
Method: as §1

PRAK(h) = molecular target: T8, PRAK(h) (Homo sapiens, UniProt Q8IW41)
T8 construct: purchased Eurofins (KinaseProfiler)
T8 sequence (Q8IW41 whole entry): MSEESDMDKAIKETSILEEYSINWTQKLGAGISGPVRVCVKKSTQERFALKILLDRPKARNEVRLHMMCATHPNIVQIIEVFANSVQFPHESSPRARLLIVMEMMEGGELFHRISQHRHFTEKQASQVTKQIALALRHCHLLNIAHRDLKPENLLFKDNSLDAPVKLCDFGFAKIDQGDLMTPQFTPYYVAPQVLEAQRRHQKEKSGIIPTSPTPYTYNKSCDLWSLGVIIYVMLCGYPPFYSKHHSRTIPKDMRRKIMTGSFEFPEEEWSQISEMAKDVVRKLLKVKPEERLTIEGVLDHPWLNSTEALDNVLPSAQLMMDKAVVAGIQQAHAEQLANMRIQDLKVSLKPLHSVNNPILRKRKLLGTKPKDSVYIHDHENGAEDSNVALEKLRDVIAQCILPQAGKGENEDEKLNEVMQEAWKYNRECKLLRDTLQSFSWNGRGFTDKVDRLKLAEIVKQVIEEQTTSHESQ
Method: as §1

EGFR(T790M,L858R)(h) = molecular target: T9, EGFR(T790M,L858R)(h) (Homo sapiens, UniProt P00533, L858R/T790M)
T9 construct: purchased Eurofins (KinaseProfiler)
Method: as §1

SAPK4(h) = molecular target: T10, SAPK4(h) (Homo sapiens, UniProt O15264)
T10 construct: purchased Eurofins (KinaseProfiler)
T10 sequence (O15264 whole entry): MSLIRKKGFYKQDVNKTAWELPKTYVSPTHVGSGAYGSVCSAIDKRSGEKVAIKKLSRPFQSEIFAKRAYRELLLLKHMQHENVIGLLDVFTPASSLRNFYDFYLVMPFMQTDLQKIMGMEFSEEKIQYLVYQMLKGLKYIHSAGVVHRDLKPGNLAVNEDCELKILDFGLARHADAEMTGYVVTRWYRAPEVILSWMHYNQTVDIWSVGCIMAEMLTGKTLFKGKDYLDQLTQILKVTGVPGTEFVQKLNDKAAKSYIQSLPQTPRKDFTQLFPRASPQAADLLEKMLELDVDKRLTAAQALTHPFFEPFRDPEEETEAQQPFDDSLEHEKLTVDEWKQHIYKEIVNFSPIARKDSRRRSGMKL
Method: as §1

FGFR2(N549H)(h) = molecular target: T11, FGFR2(N549H)(h) (Homo sapiens, UniProt P21802, N549H)
T11 construct: purchased Eurofins (KinaseProfiler)
Method: as §1

DDR1(h) = molecular target: T12, DDR1(h) (Homo sapiens, UniProt Q08345)
T12 construct: purchased Eurofins (KinaseProfiler)
Method: as §1

TTBK1(h) = molecular target: T13, TTBK1(h) (Homo sapiens, UniProt Q5TCY1)
T13 construct: purchased Eurofins (KinaseProfiler)
Method: as §1

PKCμ(h) = molecular target: T14, PKCμ(h) (Homo sapiens, UniProt Q15139)
T14 construct: purchased Eurofins (KinaseProfiler)
Method: as §1

PRK2(h) = molecular target: T15, PRK2(h) (Homo sapiens, UniProt Q16513)
T15 construct: purchased Eurofins (KinaseProfiler)
Method: as §1

IRAK1(h) = molecular target: T16, IRAK1(h) (Homo sapiens, UniProt P51617)
T16 construct: purchased Eurofins (KinaseProfiler)
Method: as §1

EphA8(h) = molecular target: T17, EphA8(h) (Homo sapiens, UniProt P29322)
T17 construct: purchased Eurofins (KinaseProfiler)
Method: as §1

GSK3β(h) = molecular target: T18, GSK3β(h) (Homo sapiens, UniProt P49841)
T18 construct: purchased Eurofins (KinaseProfiler)
T18 sequence (P49841 whole entry): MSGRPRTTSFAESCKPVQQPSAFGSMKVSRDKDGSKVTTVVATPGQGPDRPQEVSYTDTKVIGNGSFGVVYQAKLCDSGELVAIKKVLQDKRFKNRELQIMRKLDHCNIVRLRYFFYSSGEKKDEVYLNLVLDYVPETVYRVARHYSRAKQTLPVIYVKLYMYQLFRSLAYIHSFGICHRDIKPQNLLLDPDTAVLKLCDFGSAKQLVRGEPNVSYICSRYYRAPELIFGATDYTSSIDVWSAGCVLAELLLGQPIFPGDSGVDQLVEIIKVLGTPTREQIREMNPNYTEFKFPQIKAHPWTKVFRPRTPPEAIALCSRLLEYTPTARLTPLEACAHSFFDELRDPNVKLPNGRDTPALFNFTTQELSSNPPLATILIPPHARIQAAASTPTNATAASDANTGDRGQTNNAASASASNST
Method: as §1

MKK3(h) = molecular target: T19, MKK3(h) (Homo sapiens, UniProt P46734)
T19 construct: purchased Eurofins (KinaseProfiler)
Method: as §1

NEK4(h) = molecular target: T20, NEK4(h) (Homo sapiens, UniProt P51957)
T20 construct: purchased Eurofins (KinaseProfiler)
Method: as §1

DRAK1(h) = molecular target: T21, DRAK1(h) (Homo sapiens, UniProt Q9UEE5)
T21 construct: purchased Eurofins (KinaseProfiler)
Method: as §1

Met(Y1248C)(h) = molecular target: T22, Met(Y1248C)(h) (Homo sapiens, UniProt P08581, Y1230C)
T22 construct: purchased Eurofins (KinaseProfiler)
Method: as §1

CK1γ3(h) = molecular target: T23, CK1γ3(h) (Homo sapiens, UniProt Q9Y6M4)
T23 construct: purchased Eurofins (KinaseProfiler)
Method: as §1

PKBγ(h) = molecular target: T24, PKBγ(h) (Homo sapiens, UniProt Q9Y243)
T24 construct: purchased Eurofins (KinaseProfiler)
Method: as §1

A-Raf(h) = molecular target: T25, A-Raf(h) (Homo sapiens, UniProt P10398)
T25 construct: purchased Eurofins (KinaseProfiler)
T25 sequence (P10398 whole entry): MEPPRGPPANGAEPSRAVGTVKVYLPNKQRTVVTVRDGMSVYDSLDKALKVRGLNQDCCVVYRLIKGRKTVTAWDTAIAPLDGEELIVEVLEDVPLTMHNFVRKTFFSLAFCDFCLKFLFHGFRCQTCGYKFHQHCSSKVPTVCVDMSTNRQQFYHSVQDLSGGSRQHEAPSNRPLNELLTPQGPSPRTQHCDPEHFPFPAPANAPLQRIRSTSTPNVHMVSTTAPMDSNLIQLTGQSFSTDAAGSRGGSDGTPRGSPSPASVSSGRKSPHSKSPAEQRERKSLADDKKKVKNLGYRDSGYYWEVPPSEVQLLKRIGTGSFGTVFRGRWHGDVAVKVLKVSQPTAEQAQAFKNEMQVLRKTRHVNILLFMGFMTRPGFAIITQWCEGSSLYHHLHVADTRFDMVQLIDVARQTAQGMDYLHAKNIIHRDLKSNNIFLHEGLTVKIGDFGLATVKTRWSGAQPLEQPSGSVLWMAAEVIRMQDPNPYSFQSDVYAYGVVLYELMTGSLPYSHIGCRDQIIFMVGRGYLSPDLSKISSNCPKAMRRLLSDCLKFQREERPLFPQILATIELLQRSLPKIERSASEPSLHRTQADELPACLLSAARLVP
Method: as §1

[2] = molecular target: PI3 Kinase (p110b/p85b)(m) (Mus musculus, UniProt Q8BTI9)
Method: as §1

PI3KC2a(h) = PI3KC2a(h) (Homo sapiens, UniProt O00443)
Method: as §1

MAK(h) = molecular target: T26, MAK(h) (Homo sapiens, UniProt P20794)
T26 construct: purchased Eurofins (KinaseProfiler)
Method: as §1

PAK4(h) = molecular target: T27, PAK4(h) (Homo sapiens, UniProt O96013)
T27 construct: purchased Eurofins (KinaseProfiler)
Method: as §1

SRPK2(h) = molecular target: T28, SRPK2(h) (Homo sapiens, UniProt P78362)
T28 construct: purchased Eurofins (KinaseProfiler)
T28 sequence (P78362 whole entry): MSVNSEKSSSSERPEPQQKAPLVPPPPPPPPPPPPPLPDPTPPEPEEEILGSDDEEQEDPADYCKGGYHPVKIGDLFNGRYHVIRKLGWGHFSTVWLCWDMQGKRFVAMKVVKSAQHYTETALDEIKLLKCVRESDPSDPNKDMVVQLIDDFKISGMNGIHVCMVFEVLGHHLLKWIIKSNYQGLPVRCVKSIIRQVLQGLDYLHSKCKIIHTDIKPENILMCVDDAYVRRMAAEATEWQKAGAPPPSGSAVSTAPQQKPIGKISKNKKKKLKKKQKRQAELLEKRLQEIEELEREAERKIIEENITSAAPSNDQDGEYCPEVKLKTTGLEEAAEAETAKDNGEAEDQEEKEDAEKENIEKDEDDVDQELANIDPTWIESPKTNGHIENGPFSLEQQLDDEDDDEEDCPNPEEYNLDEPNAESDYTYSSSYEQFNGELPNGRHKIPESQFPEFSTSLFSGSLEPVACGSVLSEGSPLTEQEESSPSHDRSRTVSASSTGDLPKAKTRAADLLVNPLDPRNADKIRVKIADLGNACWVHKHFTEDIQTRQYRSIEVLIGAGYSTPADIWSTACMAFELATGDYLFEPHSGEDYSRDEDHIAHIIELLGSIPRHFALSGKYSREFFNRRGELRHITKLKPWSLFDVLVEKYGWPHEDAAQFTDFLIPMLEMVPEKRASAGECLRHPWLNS
Method: as §1

CDK18/cyclinY(h) = molecular target: T29, CDK18/cyclinY(h) (Homo sapiens, UniProt Q07002)
T29 construct: purchased Eurofins (KinaseProfiler)
Method: as §1

JNK3(h) = molecular target: T30, JNK3(h) (Homo sapiens, UniProt P53779)
T30 construct: purchased Eurofins (KinaseProfiler)
T30 sequence (P53779 whole entry): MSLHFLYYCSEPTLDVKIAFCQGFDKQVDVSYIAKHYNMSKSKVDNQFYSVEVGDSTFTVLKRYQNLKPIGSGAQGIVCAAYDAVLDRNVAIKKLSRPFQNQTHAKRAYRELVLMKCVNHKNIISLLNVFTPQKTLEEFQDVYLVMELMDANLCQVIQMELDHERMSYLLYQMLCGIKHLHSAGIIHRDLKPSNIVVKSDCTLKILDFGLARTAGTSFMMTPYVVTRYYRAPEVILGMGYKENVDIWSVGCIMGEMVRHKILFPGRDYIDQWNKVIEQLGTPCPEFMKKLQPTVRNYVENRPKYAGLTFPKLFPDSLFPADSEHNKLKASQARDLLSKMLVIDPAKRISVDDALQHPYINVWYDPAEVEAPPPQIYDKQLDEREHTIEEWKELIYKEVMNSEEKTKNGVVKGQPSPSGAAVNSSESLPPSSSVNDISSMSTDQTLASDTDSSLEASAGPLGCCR
Method: as §1

CDK3/cyclinE(h) = molecular target: T31, CDK3/cyclinE(h) (Homo sapiens, UniProt Q00526)
T31 construct: purchased Eurofins (KinaseProfiler)
Method: as §1

CaMKIIγ(h) = molecular target: T32, CaMKIIγ(h) (Homo sapiens, UniProt Q13555)
T32 construct: purchased Eurofins (KinaseProfiler)
T32 sequence (Q13555 whole entry): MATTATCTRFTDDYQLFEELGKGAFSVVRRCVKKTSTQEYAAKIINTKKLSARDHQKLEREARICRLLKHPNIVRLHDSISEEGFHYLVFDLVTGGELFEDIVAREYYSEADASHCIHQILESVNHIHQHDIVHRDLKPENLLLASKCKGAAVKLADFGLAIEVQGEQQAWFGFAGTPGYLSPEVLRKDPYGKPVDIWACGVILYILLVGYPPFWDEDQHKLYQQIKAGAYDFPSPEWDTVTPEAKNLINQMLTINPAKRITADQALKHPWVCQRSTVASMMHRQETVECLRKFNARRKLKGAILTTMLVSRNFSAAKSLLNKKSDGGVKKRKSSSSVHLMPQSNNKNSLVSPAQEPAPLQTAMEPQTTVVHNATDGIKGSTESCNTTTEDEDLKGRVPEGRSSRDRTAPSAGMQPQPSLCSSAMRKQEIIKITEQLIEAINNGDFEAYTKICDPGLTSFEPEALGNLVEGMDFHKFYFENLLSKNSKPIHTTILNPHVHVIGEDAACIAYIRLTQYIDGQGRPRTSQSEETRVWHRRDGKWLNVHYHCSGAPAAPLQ
Method: as §1

KDR(h) = molecular target: T33, KDR(h) (Homo sapiens, UniProt P35968)
T33 construct: purchased Eurofins (KinaseProfiler)
Method: as §1

EGFR(L858R)(h) = molecular target: T34, EGFR(L858R)(h) (Homo sapiens, UniProt P00533, L858R)
T34 construct: purchased Eurofins (KinaseProfiler)
Method: as §1

Met(Y1248H)(h) = molecular target: T35, Met(Y1248H)(h) (Homo sapiens, UniProt P08581, Y1230H)
T35 construct: purchased Eurofins (KinaseProfiler)
Method: as §1

Cc1cc(/C=C/C#N)cc(C)c1Nc1ccnc(Nc2ccc(C#N)cc2)n1 [rilpivirine, (E)-4-((4-((4-(2-cyanoethenyl)-2,6-dimethylphenyl)amino)pyrimidin-2-yl)amino)benzonitrile]
remaining activity at 1 µM (EphB2(h)): 78% | remaining activity at 1 µM (ROCK-I(h)): 95% | remaining activity at 1 µM (DYRK2(h)): 89% | remaining activity at 1 µM (Src(T341M)(h)): 78% | remaining activity at 1 µM [1]: 98% | remaining activity at 1 µM (ATR/ATRIP(h)): 117% | remaining activity at 1 µM (CK2α2(h)): 104% | remaining activity at 1 µM (MSK2(h)): 105% | remaining activity at 1 µM (PRAK(h)): 100% | remaining activity at 1 µM (EGFR(T790M,L858R)(h)): 88% | remaining activity at 1 µM (SAPK4(h)): 97% | remaining activity at 1 µM (FGFR2(N549H)(h)): 91% | remaining activity at 1 µM (DDR1(h)): 46% | remaining activity at 1 µM (TTBK1(h)): 90% | remaining activity at 1 µM (PKCμ(h)): 98% | remaining activity at 1 µM (PRK2(h)): 74% | remaining activity at 1 µM (IRAK1(h)): 84% | remaining activity at 1 µM (EphA8(h)): 60% | remaining activity at 1 µM (GSK3β(h)): 84% | remaining activity at 1 µM (MKK3(h)): 111% | remaining activity at 1 µM (NEK4(h)): 97% | remaining activity at 1 µM (DRAK1(h)): 76% | remaining activity at 1 µM (Met(Y1248C)(h)): 100% | remaining activity at 1 µM (CK1γ3(h)): 107% | remaining activity at 1 µM (PKBγ(h)): 86% | remaining activity at 1 µM (A-Raf(h)): 101% | remaining activity at 1 µM [2]: 97% | remaining activity at 1 µM (PI3KC2a(h)): 94% | remaining activity at 1 µM (MAK(h)): 84% | remaining activity at 1 µM (PAK4(h)): 87% | remaining activity at 1 µM (SRPK2(h)): 91% | remaining activity at 1 µM (CDK18/cyclinY(h)): 93% | remaining activity at 1 µM (JNK3(h)): 100% | remaining activity at 1 µM (CDK3/cyclinE(h)): 90% | remaining activity at 1 µM (CaMKIIγ(h)): 58% | remaining activity at 1 µM (KDR(h)): 85% | remaining activity at 1 µM (EGFR(L858R)(h)): 90% | remaining activity at 1 µM (Met(Y1248H)(h)): 98%
